Measurements taken from ChEMBL document CHEMBL3792292, “Development of a potent and selective FLT3 kinase inhibitor by systematic expansion of a non-selective fragment-screening hit” (Bioorg Med Chem Lett, 2016).

Experiments:
[1] = biological target: Ephrin type-A receptor 2 (Homo sapiens) (UniProt P29317); test: Inhibition of human N-terminal GST-tagged EPHA2 cytoplasmic domain (572 to 976 residues) expressed in baculovirus expression system using fluorescence labelled Blk/Lyntide as substrate at 50 times IC50 by electrophoretic mobility shift assay relative to control
[2] = biological target: Fibroblast growth factor receptor 1 (Homo sapiens) (UniProt P11362); test: Inhibition of human N-terminal GST-tagged FGFR1 cytoplasmic domain (398 to 822 residues) expressed in baculovirus expression system using fluorescence labelled CSKtide as substrate at 50 times IC50 by electrophoretic mobility shift assay relative to control
[3] = biological target: Insulin-like growth factor 1 receptor (Homo sapiens) (UniProt P08069); test: Inhibition of human N-terminal GST-tagged IGF1R cytoplasmic domain (959 to 1367 residues) expressed in baculovirus expression system using fluorescence labelled IRS1 as substrate at 50 times IC50 by electrophoretic mobility shift assay relative to control
[4] = biological target: Tyrosine-protein kinase Lck (Homo sapiens) (UniProt P06239); test: Inhibition of full length human N-terminal GST-tagged LCK (1 to 500 residues) expressed in baculovirus expression system using fluorescence labelled srctide as substrate at 50 times IC50 by electrophoretic mobility shift assay relative to control
[5] = biological target: Tyrosine-protein kinase SYK (Homo sapiens) (UniProt P43405); test: Inhibition of full length human N-terminal GST-tagged SYK (1 to 635 residues) expressed in baculovirus expression system using fluorescence labelled Blk/Lyntide as substrate at 50 times IC50 by electrophoretic mobility shift assay relative to control
[6] = biological target: High affinity nerve growth factor receptor (Homo sapiens, UniProt P04629); test: Inhibition of human N-terminal GST-tagged TRKA cytoplasmic domain (436 to 790 residues) expressed in baculovirus expression system using fluorescence labelled CSKtide as substrate at 50 times IC50 by electrophoretic mobility shift assay relative to control
[7] = biological target: AMP-activated protein kinase, AMPK (Homo sapiens) (UniProt P54646+O43741+P54619+Q9UGJ0+Q9Y478+Q13131+Q9UGI9); test: Inhibition of human N-terminal GST-tagged AMPKalpha1 (1 to 550 residues)/beta1 (1 to 270 residues)/gamma1 (1 to 331 residues) expressed in baculovirus expression system using fluorescence labelled SAMS peptide substrate at 50 times IC50 by electrophoretic mobility shift assay relative to control
[8] = biological target: T1, Serine/threonine-protein kinase Chk1 (Homo sapiens) (UniProt O14757); test: Inhibition of full length human N-terminal GST-tagged CHK1 (1 to 476 residues) expressed in baculovirus expression system using fluorescence labelled CHKtide as substrate at 50 times IC50 by electrophoretic mobility shift assay relative to control
T1 sequence (whole entry): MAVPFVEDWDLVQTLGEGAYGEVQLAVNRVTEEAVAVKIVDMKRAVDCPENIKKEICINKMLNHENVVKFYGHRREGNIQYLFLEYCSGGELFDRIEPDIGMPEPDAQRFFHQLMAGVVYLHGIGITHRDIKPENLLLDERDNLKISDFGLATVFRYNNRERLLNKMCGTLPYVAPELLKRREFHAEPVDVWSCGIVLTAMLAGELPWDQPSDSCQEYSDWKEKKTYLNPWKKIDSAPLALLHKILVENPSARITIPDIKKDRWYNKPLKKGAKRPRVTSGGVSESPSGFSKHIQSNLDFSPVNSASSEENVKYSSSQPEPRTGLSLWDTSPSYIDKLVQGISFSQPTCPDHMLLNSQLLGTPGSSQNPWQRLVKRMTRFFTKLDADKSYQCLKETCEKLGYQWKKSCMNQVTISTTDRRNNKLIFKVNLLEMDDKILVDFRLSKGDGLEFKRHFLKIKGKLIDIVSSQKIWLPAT

[9] = biological target: Death-associated protein kinase 1 (Homo sapiens) (UniProt P53355); test: Inhibition of human N-terminal GST-tagged DAPK1 catalytic domain (1 to 289 residues) expressed in baculovirus expression system using fluorescence labelled DAPK1tide as substrate at 50 times IC50 by electrophoretic mobility shift assay relative to control
[10] = biological target: Glycogen synthase kinase-3 beta (Homo sapiens) (UniProt P49841); test: Inhibition of full length human N-terminal GST-tagged GSK3beta (1 to 420 residues) expressed in baculovirus expression system using fluorescence labelled CREBtide-p as substrate at 50 times IC50 by electrophoretic mobility shift assay relative to control
[11] = biological target: Mitogen-activated protein kinase kinase kinase kinase 4 (Homo sapiens, UniProt O95819); test: Inhibition of human N-terminal GST-tagged HGK catalytic domain (1 to 328 residues) expressed in baculovirus expression system using fluorescence labelled moesin-derived peptide substrate at 50 times IC50 by electrophoretic mobility shift assay relative to control
[12] = biological target: T2, Inhibitor of nuclear factor kappa-B kinase subunit beta (Homo sapiens) (UniProt O14920); test: Inhibition of human N-terminal His-tagged IKKbeta (1 to 662 residues) expressed in baculovirus expression system using fluorescence labelled modified IKBalpha derived peptide substrate at 50 times IC50 by electrophoretic mobility shift assay relative to control
T2 sequence (whole entry): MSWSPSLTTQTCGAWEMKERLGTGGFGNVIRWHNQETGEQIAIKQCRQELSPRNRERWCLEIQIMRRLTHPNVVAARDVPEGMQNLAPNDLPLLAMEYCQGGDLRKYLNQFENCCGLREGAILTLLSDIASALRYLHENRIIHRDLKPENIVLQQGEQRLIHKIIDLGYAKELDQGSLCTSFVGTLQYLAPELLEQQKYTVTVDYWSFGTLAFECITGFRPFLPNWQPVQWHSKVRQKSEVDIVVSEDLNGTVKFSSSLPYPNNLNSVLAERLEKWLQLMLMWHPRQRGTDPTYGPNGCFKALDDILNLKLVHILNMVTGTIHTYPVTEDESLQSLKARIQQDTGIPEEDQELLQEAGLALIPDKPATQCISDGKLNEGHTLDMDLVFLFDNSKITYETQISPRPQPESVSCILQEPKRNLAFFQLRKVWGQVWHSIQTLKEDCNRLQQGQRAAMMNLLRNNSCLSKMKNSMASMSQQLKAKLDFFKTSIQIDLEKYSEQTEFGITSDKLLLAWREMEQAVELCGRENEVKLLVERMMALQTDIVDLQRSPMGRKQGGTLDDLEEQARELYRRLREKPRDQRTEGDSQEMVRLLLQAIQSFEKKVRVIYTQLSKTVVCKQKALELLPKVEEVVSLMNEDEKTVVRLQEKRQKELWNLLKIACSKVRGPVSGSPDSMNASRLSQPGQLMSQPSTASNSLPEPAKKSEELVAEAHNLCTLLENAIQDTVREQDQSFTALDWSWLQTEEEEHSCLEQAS

Sequence of High affinity nerve growth factor receptor (P04629 33-796 limits assumed): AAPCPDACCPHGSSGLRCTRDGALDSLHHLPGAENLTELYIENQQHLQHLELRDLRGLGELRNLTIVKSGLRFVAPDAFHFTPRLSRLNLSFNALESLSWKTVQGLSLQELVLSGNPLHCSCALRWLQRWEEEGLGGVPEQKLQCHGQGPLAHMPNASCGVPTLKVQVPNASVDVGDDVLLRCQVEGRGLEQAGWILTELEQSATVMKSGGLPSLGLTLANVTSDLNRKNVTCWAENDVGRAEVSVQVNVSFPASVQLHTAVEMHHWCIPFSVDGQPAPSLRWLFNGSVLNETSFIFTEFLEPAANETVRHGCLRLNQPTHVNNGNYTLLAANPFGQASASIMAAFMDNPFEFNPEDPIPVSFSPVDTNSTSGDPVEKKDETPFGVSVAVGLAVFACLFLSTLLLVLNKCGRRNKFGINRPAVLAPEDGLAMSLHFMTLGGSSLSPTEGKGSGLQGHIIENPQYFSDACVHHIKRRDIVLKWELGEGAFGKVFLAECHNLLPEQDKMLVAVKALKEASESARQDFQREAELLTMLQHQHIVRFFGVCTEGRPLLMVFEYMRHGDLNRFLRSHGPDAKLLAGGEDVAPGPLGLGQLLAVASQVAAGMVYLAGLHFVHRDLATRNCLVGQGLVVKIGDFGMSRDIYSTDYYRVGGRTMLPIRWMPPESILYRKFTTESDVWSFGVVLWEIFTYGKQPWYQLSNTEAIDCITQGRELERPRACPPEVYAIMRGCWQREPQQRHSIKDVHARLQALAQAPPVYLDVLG
Sequence of Mitogen-activated protein kinase kinase kinase kinase 4 (O95819 2-1239 limits assumed): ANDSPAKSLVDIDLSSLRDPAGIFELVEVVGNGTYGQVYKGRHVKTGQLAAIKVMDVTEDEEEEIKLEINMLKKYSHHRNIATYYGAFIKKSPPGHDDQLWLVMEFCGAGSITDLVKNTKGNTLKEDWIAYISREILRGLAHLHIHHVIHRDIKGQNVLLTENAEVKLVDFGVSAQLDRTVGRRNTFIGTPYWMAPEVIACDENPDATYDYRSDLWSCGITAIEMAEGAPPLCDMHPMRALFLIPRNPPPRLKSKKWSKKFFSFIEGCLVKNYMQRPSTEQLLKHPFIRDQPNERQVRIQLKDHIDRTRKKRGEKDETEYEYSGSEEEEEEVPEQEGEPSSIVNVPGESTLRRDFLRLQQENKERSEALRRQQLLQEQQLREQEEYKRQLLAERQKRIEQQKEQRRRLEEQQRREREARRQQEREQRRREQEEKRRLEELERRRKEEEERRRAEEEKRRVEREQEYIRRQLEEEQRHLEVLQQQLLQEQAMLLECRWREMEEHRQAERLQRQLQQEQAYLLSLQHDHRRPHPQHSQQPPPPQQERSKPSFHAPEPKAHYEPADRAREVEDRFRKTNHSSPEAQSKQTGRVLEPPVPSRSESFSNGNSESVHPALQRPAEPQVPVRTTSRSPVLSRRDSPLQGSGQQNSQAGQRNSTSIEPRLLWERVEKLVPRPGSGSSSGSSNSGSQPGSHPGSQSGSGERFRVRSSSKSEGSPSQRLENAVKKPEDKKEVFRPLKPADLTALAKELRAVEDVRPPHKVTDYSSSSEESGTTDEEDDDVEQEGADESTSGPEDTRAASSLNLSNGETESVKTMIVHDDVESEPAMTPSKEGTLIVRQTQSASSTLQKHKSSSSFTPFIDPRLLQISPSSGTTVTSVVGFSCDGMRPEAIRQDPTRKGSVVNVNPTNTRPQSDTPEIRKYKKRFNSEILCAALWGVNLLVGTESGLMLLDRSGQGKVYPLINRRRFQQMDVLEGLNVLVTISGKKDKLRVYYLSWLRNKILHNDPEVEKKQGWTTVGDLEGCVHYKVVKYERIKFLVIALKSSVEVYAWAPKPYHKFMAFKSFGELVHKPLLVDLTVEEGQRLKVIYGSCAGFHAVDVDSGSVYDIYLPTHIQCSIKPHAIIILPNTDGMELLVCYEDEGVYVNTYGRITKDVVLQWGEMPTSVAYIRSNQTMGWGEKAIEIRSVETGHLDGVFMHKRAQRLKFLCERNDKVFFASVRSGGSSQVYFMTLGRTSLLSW
Sequence of Fibroblast growth factor receptor 1 (Homo sapiens) (P11362 22-822 limits assumed): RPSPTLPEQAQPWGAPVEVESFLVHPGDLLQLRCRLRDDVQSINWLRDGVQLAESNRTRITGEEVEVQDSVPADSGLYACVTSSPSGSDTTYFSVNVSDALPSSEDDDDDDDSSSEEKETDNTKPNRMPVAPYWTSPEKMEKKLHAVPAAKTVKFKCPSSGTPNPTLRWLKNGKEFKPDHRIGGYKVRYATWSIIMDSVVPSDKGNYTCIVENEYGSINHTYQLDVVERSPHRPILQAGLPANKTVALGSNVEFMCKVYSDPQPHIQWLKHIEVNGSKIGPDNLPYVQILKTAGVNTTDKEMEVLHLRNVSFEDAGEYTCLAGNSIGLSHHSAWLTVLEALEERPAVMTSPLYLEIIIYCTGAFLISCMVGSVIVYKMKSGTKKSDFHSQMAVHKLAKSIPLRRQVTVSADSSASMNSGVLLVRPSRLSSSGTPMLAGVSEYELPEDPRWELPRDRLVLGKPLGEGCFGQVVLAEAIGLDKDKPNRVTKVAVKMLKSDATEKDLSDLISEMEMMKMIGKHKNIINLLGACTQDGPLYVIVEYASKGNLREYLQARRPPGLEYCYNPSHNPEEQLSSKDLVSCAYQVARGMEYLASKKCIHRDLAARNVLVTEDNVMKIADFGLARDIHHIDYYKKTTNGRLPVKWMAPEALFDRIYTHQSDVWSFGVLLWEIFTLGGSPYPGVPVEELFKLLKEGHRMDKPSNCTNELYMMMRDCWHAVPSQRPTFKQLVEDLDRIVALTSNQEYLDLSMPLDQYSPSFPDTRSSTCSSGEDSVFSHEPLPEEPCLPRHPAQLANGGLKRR
Sequence of Tyrosine-protein kinase Lck (Homo sapiens) (P06239 2-509 limits assumed): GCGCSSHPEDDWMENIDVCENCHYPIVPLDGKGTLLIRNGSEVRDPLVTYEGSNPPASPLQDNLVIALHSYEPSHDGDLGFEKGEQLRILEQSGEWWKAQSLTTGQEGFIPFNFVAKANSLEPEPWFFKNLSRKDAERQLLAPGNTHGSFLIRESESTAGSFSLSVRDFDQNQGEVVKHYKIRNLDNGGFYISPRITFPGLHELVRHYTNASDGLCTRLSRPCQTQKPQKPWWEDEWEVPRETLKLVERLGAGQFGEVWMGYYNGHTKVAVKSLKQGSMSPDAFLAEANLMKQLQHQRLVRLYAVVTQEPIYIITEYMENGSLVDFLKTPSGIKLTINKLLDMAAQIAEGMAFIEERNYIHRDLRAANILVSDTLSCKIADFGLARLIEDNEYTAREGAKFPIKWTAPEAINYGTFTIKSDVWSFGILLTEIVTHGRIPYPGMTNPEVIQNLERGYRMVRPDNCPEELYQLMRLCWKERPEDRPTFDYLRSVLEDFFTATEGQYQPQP
Sequence of Glycogen synthase kinase-3 beta (Homo sapiens) (P49841 whole entry, looked up, the tested form may be a part): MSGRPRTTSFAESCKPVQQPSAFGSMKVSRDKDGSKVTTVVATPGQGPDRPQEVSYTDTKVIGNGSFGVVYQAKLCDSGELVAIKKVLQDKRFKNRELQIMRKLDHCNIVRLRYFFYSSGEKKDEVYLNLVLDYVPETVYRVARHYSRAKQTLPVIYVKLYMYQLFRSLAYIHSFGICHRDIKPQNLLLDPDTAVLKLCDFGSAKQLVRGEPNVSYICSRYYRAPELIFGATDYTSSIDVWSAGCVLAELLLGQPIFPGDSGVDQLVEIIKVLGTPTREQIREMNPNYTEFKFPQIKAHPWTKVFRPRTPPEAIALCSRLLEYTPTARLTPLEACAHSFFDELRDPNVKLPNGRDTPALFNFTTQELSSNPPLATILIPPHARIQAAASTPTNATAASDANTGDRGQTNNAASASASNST
Sequence of Insulin-like growth factor 1 receptor (Homo sapiens) (P08069 31-736 limits assumed): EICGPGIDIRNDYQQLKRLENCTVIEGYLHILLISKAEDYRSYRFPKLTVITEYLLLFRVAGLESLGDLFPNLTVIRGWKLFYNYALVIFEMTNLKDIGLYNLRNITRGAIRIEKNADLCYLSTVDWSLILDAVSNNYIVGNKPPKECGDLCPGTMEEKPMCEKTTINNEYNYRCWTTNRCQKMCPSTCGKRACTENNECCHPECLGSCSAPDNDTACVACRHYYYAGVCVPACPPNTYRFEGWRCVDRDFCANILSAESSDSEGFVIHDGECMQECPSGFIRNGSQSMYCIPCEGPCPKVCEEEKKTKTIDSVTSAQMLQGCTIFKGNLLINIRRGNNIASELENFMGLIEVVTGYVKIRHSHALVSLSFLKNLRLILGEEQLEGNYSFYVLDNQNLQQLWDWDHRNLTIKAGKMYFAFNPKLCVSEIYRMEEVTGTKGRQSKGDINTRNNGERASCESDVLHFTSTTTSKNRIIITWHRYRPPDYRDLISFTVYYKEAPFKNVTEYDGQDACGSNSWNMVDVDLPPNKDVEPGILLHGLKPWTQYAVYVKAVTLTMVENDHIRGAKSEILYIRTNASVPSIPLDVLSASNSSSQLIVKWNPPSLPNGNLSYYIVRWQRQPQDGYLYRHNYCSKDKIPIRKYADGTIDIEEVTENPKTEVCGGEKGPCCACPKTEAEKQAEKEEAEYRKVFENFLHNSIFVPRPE
Sequence of Insulin-like growth factor 1 receptor (Homo sapiens) (P08069 741-1367 limits assumed): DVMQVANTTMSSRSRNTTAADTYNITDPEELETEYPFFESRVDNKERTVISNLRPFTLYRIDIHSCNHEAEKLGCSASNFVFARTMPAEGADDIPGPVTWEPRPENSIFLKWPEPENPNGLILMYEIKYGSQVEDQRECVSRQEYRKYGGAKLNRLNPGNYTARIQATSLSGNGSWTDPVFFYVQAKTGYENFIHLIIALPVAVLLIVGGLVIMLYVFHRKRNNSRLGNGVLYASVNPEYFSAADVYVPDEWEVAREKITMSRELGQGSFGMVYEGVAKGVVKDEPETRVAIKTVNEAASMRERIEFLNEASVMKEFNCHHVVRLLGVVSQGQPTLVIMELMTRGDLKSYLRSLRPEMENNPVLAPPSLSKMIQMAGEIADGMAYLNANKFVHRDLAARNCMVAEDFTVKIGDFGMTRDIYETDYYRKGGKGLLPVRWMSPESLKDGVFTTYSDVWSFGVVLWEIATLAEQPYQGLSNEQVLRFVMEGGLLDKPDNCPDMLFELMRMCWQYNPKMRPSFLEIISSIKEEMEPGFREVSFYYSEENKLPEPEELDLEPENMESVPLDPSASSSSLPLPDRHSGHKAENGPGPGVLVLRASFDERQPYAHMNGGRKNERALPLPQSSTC

| Structure (SMILES) | inhibition [1] | inhibition [2] | inhibition [3] | inhibition [4] | inhibition [5] | inhibition [6] | inhibition [7] | inhibition [8] | inhibition [9] | inhibition [10] | inhibition [11] | inhibition [12] |
| --- | --- | --- | --- | --- | --- | --- | --- | --- | --- | --- | --- | --- |
| O=C(Nc1ccc(C(=O)N2CCN(c3ccccc3)CC2)cc1)c1n[nH]c2ccccc12 | -1.6% | 6.3% | 1.9% | 1.8% | 40.2% | 90.1% | 18% | 8% | 13% | 4.9% | 90.6% | 1.3% |
| O=C(Nc1ccccc1)c1n[nH]c2ccccc12 | 0.6% | 17% | 18.2% | 5.6% | 73.5% | 95% | 46% | 10.9% | 32.9% | 51% | 92.5% | 0.7% |
| O=C(Nc1ccc(CN2CCN(c3ccccc3)CC2)cc1)c1n[nH]c2ccccc12 | 0.9% | -1% | 0.5% | 1.8% | 29.7% | 80.5% | 9.2% | 1% | 8.3% | -3.7% | 62.8% | 0.6% |
